Among the test systems are MOLT-4 leukemia; TK-10 renal; SK-MEL-5 melanoma; DU-145 prostate; NCI-H522 lung; M14 melanoma; IGROV1 ovarian; HT29 colon; OVCAR-8 ovarian; SN12C renal.
Test in all cases: growth of human tumour cells (NCI), 48 h

Each structure is given as a SMILES string. Values joined by “and” are separate entries in the source; they are usually repeats but may differ in a detail not shown here. Equal entries are not always repeated.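 Five compound concentrations were applied to cells in 96-well plates for 48 hours; endpoints were derived by simple linear interpolation of the resulting dose-response curve. GI50 marks 50% less growth. TGI is the concentration that stops growth completely.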

For `COc1cc2c(cc1O)CCN[C@@]21CS[C@H]2c3c(OC(C)=O)c(C)c4c(c3C(COC1=O)N1C2C2NC(Cc3cc(C)c(OC)c(O)c32)[C@@H]1O)OCO4` (some centres undefined), the GI50 was 4.5 ng/mL in the test on MOLT-4 leukemia; 0.00184 ng/mL and 4.5 ng/mL with TK-10 renal; 4.5 ng/mL with NCI-H522 lung; 4.5 ng/mL in the test on M14 melanoma; 0.000551 ng/mL and 4.5 ng/mL in the test with IGROV1 ovarian; 4.5 ng/mL in the test with HT29 colon. In addition, the GI50 in the test with OVCAR-8 ovarian and with SN12C renal was 4.5 ng/mL throughout. For the same compound, the TGI with TK-10 renal was 13.1 µM and 6.24 µg/mL; in the test with SK-MEL-5 melanoma it was < 10 nM and 2.8e-07 µg/mL and 0.0045 µg/mL; in the test with DU-145 prostate, 11 µM; in the test on NCI-H522 lung, < 10 nM and 0.0045 µg/mL; in the test with M14 melanoma it was < 10 nM and 1.8e-07 µg/mL and 0.0045 µg/mL; with IGROV1 ovarian it was 10.5 µM and 0.000362 µg/mL and 0.0045 µg/mL. The TGI with HT29 colon is 11.1 µM and 5.58 µg/mL; with OVCAR-8 ovarian it was < 10 nM and 0.472 µg/mL; with SN12C renal, 4.8 ng/mL.
Consider `OC[C@H]1C[C@](O)(c2ccccc2Cl)[C@@H](c2ccccc2Cl)O1`, for which the GI50 is 17.1 µM with MOLT-4 leukemia; 20.9 µM in the test with TK-10 renal; 17.1 µM in the test with SK-MEL-5 melanoma; 27.1 µM in the test with DU-145 prostate; 13.4 µM in the test with NCI-H522 lung; 10.8 µM in the test on IGROV1 ovarian. The GI50 with HT29 colon was 17.2 µM; in the test with OVCAR-8 ovarian, 26.4 µM; in the test on SN12C renal, 20.8 µM. Further, the TGI in the test on MOLT-4 leukemia is 51.4 µM; with TK-10 renal it was 64.7 µM; with SK-MEL-5 melanoma it was 31.6 µM; in the test with DU-145 prostate, 74.3 µM; in the test with NCI-H522 lung, 38.4 µM; with IGROV1 ovarian, 30.5 µM. The TGI in the test on HT29 colon came to 42.1 µM; in the test on OVCAR-8 ovarian, 86.6 µM; with SN12C renal it was 41.2 µM.
In the case of `COc1cc2c3c(c4ccc(O)cc4c2cc1OC)[C@@H](O)[C@@H]1CCCN1C3`, the TGI was determined as 0.00649 µM with TK-10 renal; 0.0206 µM in the test on SK-MEL-5 melanoma; 0.0036 µM in the test with DU-145 prostate; 0.00781 µM in the test on NCI-H522 lung; 0.00883 µM in the test with M14 melanoma; 0.00965 µM in the test on IGROV1 ovarian. The TGI turned out to be 0.034 µM with HT29 colon, 0.48 µM with OVCAR-8 ovarian and 0.00932 µM with SN12C renal.
For `O=C1c2ccc3c4c(ccc(c24)C(=O)N1CCCCO)C(=O)N(CCCCO)C3=O`, the GI50 with MOLT-4 leukemia was 1.92 µM; in the test on TK-10 renal it was 5.29 µM; in the test with SK-MEL-5 melanoma, 0.388 µM; with DU-145 prostate it was 2.2 µM; in the test with NCI-H522 lung it was 1.55 µM; in the test with IGROV1 ovarian, 2.12 µM. The GI50 in the test on HT29 colon is 0.824 µM; in the test with OVCAR-8 ovarian, 1.33 µM; in the test with SN12C renal, 1.88 µM. The TGI was 12.5 µM in the test with MOLT-4 leukemia; 32.5 µM in the test with TK-10 renal; 1.48 µM with SK-MEL-5 melanoma; 6.32 µM in the test with DU-145 prostate; 5.73 µM with NCI-H522 lung; 5.87 µM with IGROV1 ovarian. Also, the TGI is 14.3 µM in the test with HT29 colon, 8.45 µM with OVCAR-8 ovarian and 6.63 µM with SN12C renal.
As for `COc1ccccc1NC(=O)c1sc2ncn(CCOc3ccccc3)c(=O)c2c1C`, the GI50 was greater than 50 µM in the test on TK-10 renal; 1.15 µM in the test with SK-MEL-5 melanoma; greater than 50 µM in the test with DU-145 prostate; 1.8 µM in the test with NCI-H522 lung; 3540 nM with M14 melanoma; 1.9 µM in the test with IGROV1 ovarian. The figures for the GI50 with OVCAR-8 ovarian and in the test on SN12C renal were greater than 50 µM and 17.2 µM, respectively. In addition, the TGI in the test with TK-10 renal was greater than 50 µM; in the test with SK-MEL-5 melanoma, 4.2 µM; in the test with DU-145 prostate it was greater than 50 µM; in the test on NCI-H522 lung, greater than 50 µM; in the test with M14 melanoma it was greater than 50 µM; in the test on IGROV1 ovarian, greater than 50 µM. In addition, the TGI in the test on OVCAR-8 ovarian and with SN12C renal was greater than 50 µM throughout.
Regarding `COc1cc([C@H]2OC[C@@H]3C(c4cc(OC)c5c(c4)OCO5)OC[C@H]23)cc(OC)c1OC` (some centres undefined), the TGI in the test on MOLT-4 leukemia is greater than 100 µM; in the test on TK-10 renal, greater than 100 µM; with SK-MEL-5 melanoma, 44.9 µM; in the test with DU-145 prostate, greater than 100 µM; with NCI-H522 lung, greater than 100 µM; with M14 melanoma, greater than 100 µM. The TGI with IGROV1 ovarian, in the test with HT29 colon and in the test with OVCAR-8 ovarian was greater than 100 µM each time.
Take `CC(C)(C)n1cc(-c2ccnc(NCCCNS(=O)(=O)c3cccc4ccccc34)c2)c(-c2cccc(O)c2)n1`: the GI50 with MOLT-4 leukemia is 2 µM; in the test with TK-10 renal it was 2.85 µM; with SK-MEL-5 melanoma it was 1.51 µM; with DU-145 prostate, 2.65 µM; with M14 melanoma, 1680 nM; with IGROV1 ovarian it was 2.14 µM. The figures for the GI50 with OVCAR-8 ovarian and with SN12C renal were 2.38 µM and 1.73 µM, respectively. The TGI worked out at 5.5 µM in the test on MOLT-4 leukemia; 9.73 µM in the test with TK-10 renal; 2.85 µM with SK-MEL-5 melanoma; 7.45 µM in the test with DU-145 prostate; 3.21 µM in the test on M14 melanoma; 4.68 µM in the test on IGROV1 ovarian. In addition, the TGI in the test with OVCAR-8 ovarian is 6.28 µM; in the test with SN12C renal, 3.33 µM.
Turning to `C=C(C)[C@@H]1CC[C@]2(C(=O)O)CC[C@]3(C)[C@H](CC[C@@H]4[C@@]5(C)CCC(N)C(C)(C)[C@@H]5CC[C@]43C)[C@@H]12` (some centres undefined), the GI50 with DU-145 prostate was 3.07 µM; in the test on IGROV1 ovarian, 2.41 µM; with SN12C renal, 1.78 µM. For the same compound, the TGI in the test with DU-145 prostate is greater than 100 µM; in the test on IGROV1 ovarian, 6.22 µM; in the test with SN12C renal it was 3.35 µM.
As for `CC1OC(O[C@@H]2C=C3CC[C@@H]4[C@H](CC[C@]5(C)[C@@H](c6ccc(=O)oc6)CC[C@]45O)[C@@]3(C)CC2)C(O)C(O)C1O` (some centres undefined), the TGI in the test on MOLT-4 leukemia was 0.00127 µM; with TK-10 renal it was 0.00939 µM and 0.006 µM; in the test on SK-MEL-5 melanoma it was 0.003 µM and 0.0122 µM; with DU-145 prostate, 0.0153 µM; in the test on M14 melanoma, 0.0124 µM; with SN12C renal it was 0.003 µM and 0.0189 µM. Further, the GI50 in the test with M14 melanoma was 0.0885 nM.
For the compound `NP1(Oc2ccc(F)cc2)=NP(N)(Oc2ccc(F)cc2)=NP(Oc2ccc(F)cc2)(Oc2ccc(F)cc2)=N1` (centres undefined), the TGI with MOLT-4 leukemia worked out at 10.5 µM; in the test with TK-10 renal it was 12.3 µM; in the test on SK-MEL-5 melanoma, 17.8 µM; with DU-145 prostate, 20.1 µM; in the test with M14 melanoma, 19.4 µM; in the test with IGROV1 ovarian it was 6.31 µM. The values for the TGI in the test with HT29 colon, in the test on OVCAR-8 ovarian and in the test on SN12C renal were 17.2 µM, 14.9 µM and 18.5 µM, respectively.
Turning to `COc1cc2c(c3oc4c(O)cccc4c(=O)c13)CC(C(C)(O)CCl)O2` (centres undefined), the TGI in the test on TK-10 renal came to 41.8 µM; with SK-MEL-5 melanoma, 1.5 µM; in the test on DU-145 prostate, 10.3 µM; in the test on NCI-H522 lung, 5.94 µM; with M14 melanoma, 1.27 µM; in the test on IGROV1 ovarian, 8.28 µM. Also, the values for the TGI with HT29 colon, in the test with OVCAR-8 ovarian and in the test on SN12C renal were 15.9 µM, 7.94 µM and 2.4 µM, respectively.

For the origin of these results see PubChem BioAssay (NCI).
